From ChEMBL document CHEMBL5465560, “Selectivity Literature for EUbOPEN Chemogenomic Library” (2024)

Assays:
[1] = biological target: P2X purinoceptor 1 (Homo sapiens) (UniProt P51575); assay: Selectivity interaction (Eurofins CEREP Diversity Profile (receptors and ion channels)) EUB0000279b P2RX1; details: at 10 µM
[2] = biological target: T1, Interleukin-1 receptor-associated kinase 3 (Homo sapiens) (UniProt Q9Y616); assay: Selectivity interaction (KinomeScan (DiscoverX)) EUB0000595a IRAK3; details: at 10 µM
T1 sequence (whole entry): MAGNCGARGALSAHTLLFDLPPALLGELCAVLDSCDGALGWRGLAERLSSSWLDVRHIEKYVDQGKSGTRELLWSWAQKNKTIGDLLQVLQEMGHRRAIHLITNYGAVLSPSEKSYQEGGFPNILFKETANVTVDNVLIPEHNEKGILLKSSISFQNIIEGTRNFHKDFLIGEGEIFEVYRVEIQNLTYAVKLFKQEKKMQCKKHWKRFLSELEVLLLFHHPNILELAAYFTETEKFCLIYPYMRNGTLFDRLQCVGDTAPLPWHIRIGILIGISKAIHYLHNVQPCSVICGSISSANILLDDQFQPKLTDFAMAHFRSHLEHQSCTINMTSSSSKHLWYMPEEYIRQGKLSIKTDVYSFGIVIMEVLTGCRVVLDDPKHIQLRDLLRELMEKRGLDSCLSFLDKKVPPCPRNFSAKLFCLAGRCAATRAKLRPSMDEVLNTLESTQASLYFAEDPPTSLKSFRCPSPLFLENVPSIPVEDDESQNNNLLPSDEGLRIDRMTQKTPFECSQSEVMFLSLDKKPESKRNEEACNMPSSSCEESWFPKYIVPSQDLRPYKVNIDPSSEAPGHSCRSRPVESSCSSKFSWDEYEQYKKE

[3] = biological target: Cyclin-dependent kinase 17 (Homo sapiens) (UniProt Q00537); details: at 10 µM
Cyclin-dependent kinase 17 (Homo sapiens), sequence (Q00537 whole entry, looked up): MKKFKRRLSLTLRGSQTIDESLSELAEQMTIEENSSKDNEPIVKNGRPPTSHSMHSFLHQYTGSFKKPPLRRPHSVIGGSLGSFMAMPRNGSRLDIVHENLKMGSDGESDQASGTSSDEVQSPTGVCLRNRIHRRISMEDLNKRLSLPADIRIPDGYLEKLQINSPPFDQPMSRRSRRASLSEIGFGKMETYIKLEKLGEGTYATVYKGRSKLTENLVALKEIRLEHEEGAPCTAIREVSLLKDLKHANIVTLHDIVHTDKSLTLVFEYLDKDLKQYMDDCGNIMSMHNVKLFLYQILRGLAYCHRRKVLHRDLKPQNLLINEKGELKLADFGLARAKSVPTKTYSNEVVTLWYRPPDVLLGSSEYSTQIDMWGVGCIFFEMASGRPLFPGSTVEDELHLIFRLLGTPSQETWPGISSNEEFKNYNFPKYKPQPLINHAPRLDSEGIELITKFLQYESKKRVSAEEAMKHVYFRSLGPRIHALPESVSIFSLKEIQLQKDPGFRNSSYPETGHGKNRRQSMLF

[4] = biological target: Death-associated protein kinase 1 (Homo sapiens, UniProt P53355); assay: Selectivity interaction (Kinase screening (Nanosyn)) EUB0000604a DAPK1
Death-associated protein kinase 1, sequence (P53355 whole entry, looked up): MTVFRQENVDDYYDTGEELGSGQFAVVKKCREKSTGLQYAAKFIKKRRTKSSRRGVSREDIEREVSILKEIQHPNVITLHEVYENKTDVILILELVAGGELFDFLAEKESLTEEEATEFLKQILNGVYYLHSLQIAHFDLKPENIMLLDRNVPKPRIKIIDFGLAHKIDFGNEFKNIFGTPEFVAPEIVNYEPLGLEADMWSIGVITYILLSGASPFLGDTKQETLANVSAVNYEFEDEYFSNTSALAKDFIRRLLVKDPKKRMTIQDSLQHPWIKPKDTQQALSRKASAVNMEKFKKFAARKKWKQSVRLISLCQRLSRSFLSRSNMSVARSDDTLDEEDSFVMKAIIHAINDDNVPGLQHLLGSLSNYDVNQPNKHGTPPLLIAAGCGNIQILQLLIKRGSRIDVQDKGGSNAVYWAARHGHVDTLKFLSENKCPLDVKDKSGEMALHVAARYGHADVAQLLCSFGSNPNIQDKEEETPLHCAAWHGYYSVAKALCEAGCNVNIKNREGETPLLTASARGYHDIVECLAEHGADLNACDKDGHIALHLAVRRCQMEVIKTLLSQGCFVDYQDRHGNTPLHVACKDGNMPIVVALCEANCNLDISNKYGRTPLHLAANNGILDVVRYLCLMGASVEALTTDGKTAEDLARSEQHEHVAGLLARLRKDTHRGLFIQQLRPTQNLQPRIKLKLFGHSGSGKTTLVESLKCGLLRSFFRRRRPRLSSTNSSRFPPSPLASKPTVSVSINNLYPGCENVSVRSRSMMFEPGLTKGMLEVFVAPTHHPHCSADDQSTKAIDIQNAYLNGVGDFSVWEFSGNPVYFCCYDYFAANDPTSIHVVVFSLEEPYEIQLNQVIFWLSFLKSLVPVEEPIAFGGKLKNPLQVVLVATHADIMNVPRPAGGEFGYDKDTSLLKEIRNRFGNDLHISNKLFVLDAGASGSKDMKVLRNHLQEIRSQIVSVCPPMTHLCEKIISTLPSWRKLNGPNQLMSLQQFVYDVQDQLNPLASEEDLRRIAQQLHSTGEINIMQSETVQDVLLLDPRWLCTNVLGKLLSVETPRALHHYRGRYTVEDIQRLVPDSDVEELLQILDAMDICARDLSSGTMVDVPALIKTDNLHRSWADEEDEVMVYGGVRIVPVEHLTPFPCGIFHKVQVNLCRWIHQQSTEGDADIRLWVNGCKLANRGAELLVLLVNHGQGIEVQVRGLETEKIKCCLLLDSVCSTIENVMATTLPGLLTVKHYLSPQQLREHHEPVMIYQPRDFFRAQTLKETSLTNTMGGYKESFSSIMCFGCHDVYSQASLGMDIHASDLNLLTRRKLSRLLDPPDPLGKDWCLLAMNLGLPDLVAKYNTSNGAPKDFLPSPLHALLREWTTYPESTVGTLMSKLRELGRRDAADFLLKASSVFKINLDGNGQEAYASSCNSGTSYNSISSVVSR

[5] = biological target: T2, MAP/microtubule affinity-regulating kinase 4 (Homo sapiens) (UniProt Q96L34); assay: Selectivity interaction (Ambit KINOMEscan and KiNATiv profiling in Jurkat cells) EUB0000090b MARK4; assay type: cell-based; details: at 1 µM
T2 sequence (whole entry): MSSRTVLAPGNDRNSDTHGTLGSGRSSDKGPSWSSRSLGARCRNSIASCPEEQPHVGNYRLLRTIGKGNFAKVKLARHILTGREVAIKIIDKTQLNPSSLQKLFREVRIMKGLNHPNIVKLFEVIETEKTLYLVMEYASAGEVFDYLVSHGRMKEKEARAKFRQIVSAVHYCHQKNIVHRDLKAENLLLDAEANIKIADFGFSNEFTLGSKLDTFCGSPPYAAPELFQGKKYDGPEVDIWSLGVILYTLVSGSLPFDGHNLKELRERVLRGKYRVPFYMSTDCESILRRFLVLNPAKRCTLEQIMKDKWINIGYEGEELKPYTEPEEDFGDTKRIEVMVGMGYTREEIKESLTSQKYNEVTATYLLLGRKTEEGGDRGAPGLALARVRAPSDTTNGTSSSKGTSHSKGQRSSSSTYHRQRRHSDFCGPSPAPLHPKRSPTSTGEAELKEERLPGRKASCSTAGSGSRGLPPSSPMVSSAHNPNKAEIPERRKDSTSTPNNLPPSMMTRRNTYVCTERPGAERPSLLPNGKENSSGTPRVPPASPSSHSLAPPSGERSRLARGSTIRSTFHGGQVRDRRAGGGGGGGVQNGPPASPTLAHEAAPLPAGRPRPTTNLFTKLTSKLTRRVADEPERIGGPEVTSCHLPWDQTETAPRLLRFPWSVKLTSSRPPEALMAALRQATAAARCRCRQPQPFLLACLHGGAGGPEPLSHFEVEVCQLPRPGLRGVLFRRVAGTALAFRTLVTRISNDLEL

[6] = biological target: Tyrosine-protein kinase receptor UFO (Homo sapiens) (UniProt P30530); assay: Selectivity interaction (KinomeScan (DiscoverX)) EUB0000655a AXL; details: at 10 µM
Tyrosine-protein kinase receptor UFO (Homo sapiens), sequence (P30530 whole entry): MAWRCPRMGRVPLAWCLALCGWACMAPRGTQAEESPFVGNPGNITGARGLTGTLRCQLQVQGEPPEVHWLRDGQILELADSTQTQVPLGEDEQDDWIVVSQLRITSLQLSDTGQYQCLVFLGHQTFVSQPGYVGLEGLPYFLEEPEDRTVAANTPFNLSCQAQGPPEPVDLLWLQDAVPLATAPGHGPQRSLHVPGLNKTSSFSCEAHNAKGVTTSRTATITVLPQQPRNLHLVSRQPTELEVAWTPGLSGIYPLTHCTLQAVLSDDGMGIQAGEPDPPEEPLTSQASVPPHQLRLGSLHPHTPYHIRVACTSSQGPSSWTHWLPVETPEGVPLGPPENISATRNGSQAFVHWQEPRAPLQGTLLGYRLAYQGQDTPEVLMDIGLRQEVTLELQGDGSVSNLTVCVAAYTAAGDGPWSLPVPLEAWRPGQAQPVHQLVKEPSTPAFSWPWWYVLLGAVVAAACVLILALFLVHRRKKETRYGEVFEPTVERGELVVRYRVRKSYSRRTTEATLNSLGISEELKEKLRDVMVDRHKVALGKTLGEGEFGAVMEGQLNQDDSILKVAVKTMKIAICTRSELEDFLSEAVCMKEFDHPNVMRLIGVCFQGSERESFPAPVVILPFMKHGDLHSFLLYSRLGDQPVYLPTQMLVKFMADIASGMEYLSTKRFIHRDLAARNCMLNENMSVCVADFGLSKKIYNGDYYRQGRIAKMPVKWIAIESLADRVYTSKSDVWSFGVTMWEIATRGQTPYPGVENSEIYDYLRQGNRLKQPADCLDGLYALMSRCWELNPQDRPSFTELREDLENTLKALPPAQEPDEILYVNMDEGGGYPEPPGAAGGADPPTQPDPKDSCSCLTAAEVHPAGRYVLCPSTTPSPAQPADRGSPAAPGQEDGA

[7] = biological target: T3, Inhibitor of nuclear factor kappa-B kinase subunit beta (Homo sapiens) (UniProt O14920); assay: Selectivity interaction (KinomeScan (DiscoverX)) EUB0000618a IKBKB; details: at 10 µM
T3 sequence (whole entry): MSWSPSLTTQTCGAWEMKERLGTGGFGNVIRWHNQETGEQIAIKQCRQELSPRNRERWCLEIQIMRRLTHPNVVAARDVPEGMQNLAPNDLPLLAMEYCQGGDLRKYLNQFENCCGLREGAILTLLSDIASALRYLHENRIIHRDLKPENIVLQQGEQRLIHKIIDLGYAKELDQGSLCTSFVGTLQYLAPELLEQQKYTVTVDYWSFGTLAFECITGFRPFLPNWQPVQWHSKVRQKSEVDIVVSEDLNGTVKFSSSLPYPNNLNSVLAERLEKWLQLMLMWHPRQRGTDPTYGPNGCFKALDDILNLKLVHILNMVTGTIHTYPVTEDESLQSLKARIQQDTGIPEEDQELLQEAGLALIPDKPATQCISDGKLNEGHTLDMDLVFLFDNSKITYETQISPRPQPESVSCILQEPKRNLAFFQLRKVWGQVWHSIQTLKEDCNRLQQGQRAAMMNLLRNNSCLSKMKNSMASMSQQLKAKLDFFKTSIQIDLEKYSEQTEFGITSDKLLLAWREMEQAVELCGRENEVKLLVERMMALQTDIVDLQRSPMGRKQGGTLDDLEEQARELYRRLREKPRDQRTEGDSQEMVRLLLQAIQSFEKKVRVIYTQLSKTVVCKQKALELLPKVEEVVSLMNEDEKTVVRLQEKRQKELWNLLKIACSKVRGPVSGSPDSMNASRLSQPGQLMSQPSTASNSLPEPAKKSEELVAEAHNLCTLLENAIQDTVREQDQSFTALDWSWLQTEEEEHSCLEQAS

P2X purinoceptor 1 (Homo sapiens), sequence (P51575 whole entry): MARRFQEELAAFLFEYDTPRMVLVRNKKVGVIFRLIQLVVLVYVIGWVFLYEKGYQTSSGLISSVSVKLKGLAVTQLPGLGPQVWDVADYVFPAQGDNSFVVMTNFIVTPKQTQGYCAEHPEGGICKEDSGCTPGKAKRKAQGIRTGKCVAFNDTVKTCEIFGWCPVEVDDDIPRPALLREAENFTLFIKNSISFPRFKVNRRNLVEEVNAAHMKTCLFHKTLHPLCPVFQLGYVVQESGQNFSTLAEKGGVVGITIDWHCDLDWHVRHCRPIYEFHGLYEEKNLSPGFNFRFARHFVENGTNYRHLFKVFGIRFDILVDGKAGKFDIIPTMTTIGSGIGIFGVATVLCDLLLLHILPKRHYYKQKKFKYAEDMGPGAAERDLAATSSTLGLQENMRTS

CC(=O)c1cc(-c2ccccc2OCC2CC2)c2ncccn12
% of control [1]: 89%

COCC(=O)NC/C=C/c1ccc2ncnc(Nc3ccc(Oc4ccc(C)nc4)c(C)c3)c2c1 [CP-724714]
% of control [2]: 82%
% of control [3]: 100%

Cc1cnc(Nc2ccc(F)cc2Cl)nc1-c1c[nH]c(C(=O)N[C@H](CO)c2cccc(Cl)c2)c1
% of inhibition [4]: 2%

CN(C)C/C=C/C(=O)Nc1ccc(C(=O)N2CCCC(Nc3ncc(Cl)c(-c4c[nH]c5ccccc45)n3)C2)cc1 (configuration not stated)
% of control [5]: 100%

CN(C)CCOc1ccc(-c2nc(-c3ccncc3)c(-c3ccc4c(c3)CC/C4=N\O)[nH]2)cc1
% of control [6]: 78%

O[C@H]1CC[C@H](Nc2ncc3nc(Nc4c(F)cc(F)cc4F)n([C@H]4CCOC4)c3n2)CC1
% of control [7]: 100%
